Results published in patent publication US11478466B2, “Small molecule promoting osteoblast differentiation” (Cornell University, priority 2019, dated 2022).

Experiments:
Type in all cases: cell-based, mouse
JNK p54 = test: Western blotting of JNK in C2C12 cells
Method: (§1) Whole cell extracts were collected from C2C12 or BRITER cells in complete lysis buffer (20 mM Tris, 150 mM NaCl, 50 mM NaF, 1% NP40 substitute, HALT protease inhibitor cocktail (ThermoScientific). Proteins were resolved by electrophoresis on pre-cast 10% NuPage Bis-Tris gels (Invitrogen) and transferred to PVDF membranes (Bio-Rad). Membranes were blocked in 5% BSA-TBS-0.5% Tween-20 for 15 minutes, then incubated at 4° overnight with primary antibodies. Antibodies used were: rabbit anti-phospho-p38 MAPK (cat. no. 9211), anti-p38 MAPK XP (8690), anti-phospho-SMAD1/5 (9516), anti-SMAD1 XP (6944), anti-phospho-SMAD2/3 (8828), anti-SMAD2/3 XP (8685), anti-phospho-JNK (4668), anti-SAPK/JNK (9252), anti-phospho-Akt XP (4060), pan anti-Akt (4691), anti-phospho ERK p42/p44 (4377), anti-ERK p42/p44 (9102), anti-phospho-MKK3/6 (12280), anti-MKK3 (8535), anti-phospho-TAK1 (4531), anti-TAK1 (5206), anti-HA (3274), and anti-FLAG (14793); all from Cell Signaling); and mouse anti-p38α (cat. no. 33-1300), anti-p38β (33-8700; both ThermoFisher) and anti-β-actin (Sigma A1978). Proteins were visualized with HRP-conjugated secondary antibodies (Bio-Rad) with WestPico (ThermoFisher) or Immobilon (Millipore) chemiluminescence reagents. Images were obtained and analyzed for relative densitometric relationships on a LI-COR C-DiGit scanner using Image Studio software.

[1] = system: alkaline phosphatase (ALP); test: ALP expression staining in C2C12 cells; conditions: C2C12, 2 days, 10 μM
Method: C2C12 cells were treated for 2 days with 10 μM DIPQUO or structural analogs, 1 ng/ml rhBMP4, or with inhibitors as noted in figure legends, and then fixed briefly in 70% acetone/10% formaldehyde/20% citrate. Staining was achieved using the leukocyte alkaline phosphatase kit (Sigma 86R-1KT) according to the manufacturer's instructions. Expression of ALP was confirmed and quantified by flow cytometric analysis, using an Accuri C6 flow cytometer. Briefly, control- or DIPQUO-treated C2C12 cells were detached and harvested on day 2 using PBS-based enzyme-free cell detachment solution (ThermoFisher). 2×10^5 cells were incubated on ice for 30 minutes with 10 μl APC-conjugated ALPL antibody (R&D Systems), and washed in ice-cold PBS before analysis. Live cells were gated and analyzed in CFlow Plus software and then data was converted to FlowJo to achieve publication-level resolution. For siRNA experiments, gene-specific oligonucleotides were obtained for mouse p38-alpha (Cell Signaling) and p38-beta (Santa Cruz). Signal Silence scramble siRNA control oligonucleotide was purchased from Cell Signaling. C2C12 cells at 70% confluency were transfected in 12-well plates using Lipofectamine RNAiMax reagent (Invitrogen) according to manufacturer's instructions. Transfected cells were treated 24 hours later with DMSO or 10 μM DIPQUO, and siRNA transfection was repeated after 48 hours without changing culture media. After an additional 3 days, cells were either fixed and stained for ALP expression or analyzed for ALP activity using the AttoPhos Substrate kit. Hemagglutinin and FLAG epitope-tagged MKK3 (pMT2-HA-MKK3) and MKK6 (pcDNA3-FLAG-MKK6) constructs were obtained from Addgene and transfected into C2C12 cells using Lipofectamine LTX with Plus Reagent (ThermoFisher) according to manufacturer's instructions and cell extracts analyzed for protein expression and activity as described below.

p38 MAPK = test: Western blotting of p38 MAPK phosphorylation in C2C12 cells; conditions: C2C12, western blotting
Method: as §1

For `N#CC(c1ccnc(NCCc2cccnc2)n1)c1nc2ccccc2s1` (stereo not drawn) [JNK inhibitor V, reference compound], the “JNK p54 signaling” value (JNK p54) was “suppress JNK p54”, the “ALP expression by staining” value [1] was “did not lead to ALP-positive staining” and the “p38 MAPK signaling (phosphorylation)” value (p38 MAPK) was “activate p38 MAPK”.
